In US20150125506A1, “RETINAL PIGMENT EPITHELIAL CELLS DIFFERENTIATED FROM EMBRYONIC STEM CELLS WITH NICOTINAMIDE AND ACTIVIN A” (HADASIT MEDICAL RESEARCH SERVICES AND DEVELOPMENT LTD., priority 2007, published 2015):

Experiments:
Assay type in all cases: cell-based, human
[1] = tested on: hESCs; assay: Differentiation of hESC free-floating clusters into pigmented (RPE) cells, counted as pigmented clusters and cells; settings: for percentage of clusters that included pigmented cells / percentage of pigmented cells from the total number of cells: NA with activin A vs NA without activin A; for appearance of clusters harboring pigmented cells: factor added in presence of NA
Description: Human ESC (HES1 cell line) and hESCs engineered by lentiviral vector to constitutively express eGFP [Gropp M, Itsykson P, Singer O, Ben-Hur T, Reinhartz E, Galun E, and Reubinoff B E. Stable genetic modification of human embryonic stem cells by lentiviral vectors. Molecular Therapy 7:281-7 (2003)] were cultured on human foreskin fibroblasts feeder layers in KO medium (KOM) consisting of 86% KO-DMEM (Gibco, Invitrogen, Gaithersburg, Md.), 14% KOSR (Gibco), 1 mM glutamine, 1% nonessential amino acids, 50 units/ml penicillin (Gibco), 50 μg/ml streptomycin, (Gibco) and 4 ng/ml bFGF (R&D Systems, Inc., Minneapolis, Minn.). hES cells were weekly passaged with type IV collagenase (1 mg/ml; Gibco) and plated onto a fresh feeder layer. A week before induction of differentiation, the cells were passaged by dissociation into nearly a single-cell suspension with Ca/Mg^++-free PBS supplemented with 0.05% EDTA (Biological Industries, Beit Haemek, Israel) and were re-plated on the feeders.
(§1) Six-eight days after plating the hES cells that were dissociated into single cells as above; they were removed from the feeders by treatment with type IV collagenase. The clumps were cultured for various periods up to 12 weeks in suspension within bacteriological dishes precoated with 0.1% low melting temperature agarose in KO medium (KOM) consisting of 86% KO-DMEM, 14% KOSR, 1 mM glutamine, 1% nonessential amino acids, 50 units/ml penicillin, and 50 μg/ml streptomycin, in the presence or absence of 10 mM nicotinamide (NA) (Sigma, St. Louis, Mo., USA). In some experiments the medium used was Neurobasal™ medium (Gibco) supplemented with N2 supplement (1:100) (Gibco) (NN medium), which was substituted after 1 week with DMEM/F12 (Gibco) supplemented with B27 (1:50) (Gibco).
(§2) Human ESCs were allowed to differentiate as free-floating clusters in KOM as above for up to six weeks in the presence of nicotinamide (NA) 10 mM. After the first week or 2 weeks of differentiation, cultures were supplemented with activin A 20-180 ng/ml (PeproTech Inc, Rocky Hill, N.J.), with TGFβ3 (1 ng/ml; R&D Systems Inc, Minneapolis, Minn.) with TGFβ1 (1 ng/ml-20 ng/ml; R&D Systems Inc) or with SB431542 (5 μM-50 μM, Sigma). Control cultures were supplemented with NA alone.
(§3) Human ESCs in suspension in KOM were also supplemented after one week with the bone morphogenetic protein (BMP) antagonist noggin (700 ng/ml R&D Systems Inc, Minneapolis, Minn.) in the presence and absence of NA, or during the 3rd and 4th weeks with TGFβ (20 ng/ml PeproTech Inc) in the presence of NA and allowed to differentiate up to an age of 6 weeks as free-floating clusters in suspension.

[2] = tested on: hESC clusters; assay: Indirect immunofluorescent staining of differentiated cells within clusters
Description: To characterize the immunophenotype of cells within the aggregates, the clusters cultivated for 2, 4, 6 or 8 weeks were gently dissociated either with 0.04% trypsin/0.04% EDTA or with Papain Dissociation System (Worthington Biochemical, Lakewood, N.J.), and the resulting small clumps and single cells were plated in KO medium supplemented with NA on poly-D-lysine (30-70 kDa, 10-20 μg/ml) alone or supplemented with either laminin (4 μg/ml) or fibronectin (10-20 μg/ml; all from Sigma, St. Louis, http://www.sigmaaldrich.com). The cells were fixed with 4% paraformaldehyde after 2 hours and examined for the expression of nestin (1:200), polysialic acid NCAM (PSA-NCAM) (1:100), Musashi (1:200; all from Chemicon, Temecula, from CA), Pax6 (DSHB, 1:100 or Chemicon, 1:250), Otx2 (Chemicon, 1:200), MiTF (Lab Vision Corporation, Fremont, Calif.; mouse IgG1, 1:50).

[3] = tested on: hESC-derived clusters; assay: Flow cytometry of PSA-NCAM and TRA-1-60 positive cells in hESC-derived clusters
Description: Flow cytometric analysis was performed to determine the number of PSA-NCAM and TRA-1-60 positive cells at different time points within the hESC-derived clusters differentiating with or without nicotinamide supplementation. The clusters were dissociated with 0.04% Trypsin/0.04% EDTA. The single cells were then stained with anti-PSA-NCAM or anti-Tra-1-60 antibodies (both from Chemicon; 1:100), detected with goat anti-mouse immunoglobulins conjugated to FITC (Dako; 1:100), and counterstained with the cell viability dye Propidium iodide (0.005 mg/ml; Sigma) Control cells were incubated only with a secondary antibody. The cell-associated immunoreactivity was analyzed with FACScalibur (Becton Dickinson Immunocytometry Systems), using CellQuest software.

[4] = tested on: hESC clusters; assay: RT-PCR and Real-time PCR of marker transcripts in differentiating hESC clusters; settings: for enhancement of MiTF-A expression by NA supplementation / increase of RPE65 expression with vs without NA: 12 weeks
Description: as §1, §2, §3
Total RNA was extracted from hESCs grown under serum-free conditions (1 week after passage), and at sequential time points up to 8 weeks during culturing of hESC-derived clusters in the presence or absence of 10 mM nicotinamide and with or without supplementation with TGFβ-superfamily growth factors or antagonists. The RNA was isolated using TRIzol reagent (Invitrogen, http://www.invitrogen.com) or TRI-Reagent (Sigma). cDNA synthesis was carried out using Moloney murine leukemia virus reverse transcriptase (M-MLV RT) and random primers, according to the manufacturer's instructions (Promega Corporation, Madison, Wis., http://www. promega.com). Polymerase chain reaction (PCR) was carried out using standard protocols with Taq DNA Polymerase (Gibco-BRL). Amplification conditions were as follows: denaturation at 94° C. for 15 seconds, annealing at 55° C. for 30 seconds, and extension at 72° C. for 45 seconds. The number of cycles varied between 18 and 40, depending on particular mRNA abundance. Primer human sequences for identifying human gene transcripts (forward and reverse 5′-3′) and the length of the amplified products were as follows (SEQ ID NOs. 1-12):
For Real-time PCR the levels of transcripts were monitored using TaqMan primers and probes that were derived from the commercially available TaqMan® Assays-on-Demand Gene Expression Products (Applied Biosystems, Foster City, Calif.): Oct4, ID Hs01895061; Musashi, ID Hs01045894; Pax6, ID Hs00240871; Six3, ID Hs00193667; Rx1, ID Hs00429459; Chx10, ID Hs01584048; MiTF-A, ID Hs01115553; MiTF-total, ID Hs01115557; Bestrophin, ID Hs00188249; RPE65, ID Hs00165642; Sox10, ID Hs00366918; Crx, ID Hs00230899. Quantitative PCR analysis was performed using an ABI Prism 7000HT and ABI Prism 7900HT Sequence Detection Systems and TaqMan® Universal PCR Master Mix (Applied Biosystems) according to the manufacturer's protocol. Housekeeping gene β-glucuronidase (GusB, assay ID Hs99999908) was selected as an internal reference for normalization in the Real-Time RT-PCR quantification analysis and the relative expression level of each gene is shown as a relative value when the expression level of day 0 (or untreated cells) was set at 1. Amplification reactions were carried out in duplicates or triplicates according to manufacturer's protocol (Applied Biosystems).

[5] = 8 weeks of differentiation in presence of NA
[6] = at 4 weeks, NA-treated clusters
[7] = 2 weeks old clusters, RT-PCR, with vs without NA
[8] = 6 weeks of differentiation, KOM, with vs without NA, Real-time RT-PCR
[9] = Q-PCR time course, 2 weeks activin A treatment with NA vs NA alone
[10] = TGFβ3 added in presence of NA, 6 weeks

With `NC(=O)c1cccnc1` [NA, nicotinamide] the “percentage of clusters that included pigmented cells” value ([1]; 4 weeks) was 17.7±3.2%, the “percentage of pigmented cells from the total number of cells” value ([1]; 4 weeks) was 2.4±1.2% and the “percentage of cells that were pigmented within clusters” value [1, 5] was 5.7±1.0%. For the same molecule, the “percentage of clusters that had pigmented areas” value ([1]; after 8 weeks of differentiation, KO medium with NA 10 mM) was 72.9±2.5%, the “percentage of cells expressing the early RPE marker MiTF” value [2, 5] was 5.4±1.1% and the “percentage of cells expressing Musashi (immunofluorescence)” value [2, 6] was 71.4%. The “percentage of cells expressing PSA-NCAM (immunofluorescence)” value [2, 6] was 74.2±4.1%, the “percentage of cells expressing nestin (immunofluorescence)” value [2, 6] was 55.9±10.1% and the “expression of TRA-1-60 (surface marker of undifferentiated cells)” value ([3]; FACS time course, NA treated vs untreated) was “declined more rapidly”. The “percentage of cells expressing PSA-NCAM (FACS)” value ([3]; after 4 weeks of differentiation with NA) was 81.4±6.3%, the “expression of activin receptor ACTRIB” value [4, 7] was “high” and the “expression of activin receptor ACTRIIB” value [4, 7] was “high”. The “increase of MiTF-A expression in presence of NA” value [4, 8] was “nearly two-fold”, the “increase of RPE65 expression in presence of NA” value [4, 8] was roughly 30 fold and the “augmentation of RPE65 expression” value ([4]; 8-week time course, NA-treated vs spontaneously differentiating clusters) was greater than 100 folds. The “enhancement of MiTF-A expression by NA supplementation” value ([4]; KOM) was “approximately 3 fold”, the “increase of RPE65 expression with vs without NA” value ([4]; KOM) was “approximately doubled” and the “expression of Chx10” value ([4]; NA treatment vs no NA) was “increased”. For the same molecule, the “expression of Crx (photoreceptor progenitor marker)” value ([4]; NA treatment vs no NA) was “increased”, the “expression of Rx1 transcripts” value ([4]; NA treatment vs no NA) was “increased” and the “expression of Six3 transcripts” value ([4]; NA treatment vs no NA) was “increased”. For the same molecule, the “expression of Bestrophin transcripts” value ([4]; NA-treated cultures vs spontaneously differentiating hESC clusters) was “higher”, the “enhancement of MiTF-A expression by NA supplementation” value ([4]; NN/DMEM medium) was “approximately 2.5 fold” and the “increase of RPE65 expression with vs without NA” value ([4]; NN/DMEM medium) was roughly 6 fold. The “expression of Pax6 transcripts” value ([4]; after 2-6 weeks of differentiation, with vs without NA) was “significantly increased”, the “expression of Otx2 transcripts” value ([4]; after 2 weeks of differentiation, with vs without NA) was “significantly increased” and the “expression of Musashi transcripts” value ([4]; after 4-6 weeks of differentiation, with vs without NA) was “significantly increased”. For the same molecule, the “expression of transcripts of the early RPE marker MiTF A” value ([4]; time course in presence of NA) was “induced after 4 weeks”, the “expression of Oct4 (marker of undifferentiated hESCs)” value ([4]; time course, with vs without NA) was “declined more rapidly” and the “expression of Sox10 (melanocyte developmental marker)” value ([4]; with vs without NA, M51 melanoma cell line as control) was “not dependent on NA supplementation”.

`NC(=O)c1ccc(-c2nc(-c3ccc4c(c3)OCO4)c(-c3ccccn3)[nH]2)cc1` [SB431542] was tested, and the “appearance of pigmented clusters” value ([1]; 4 weeks, added together with activin A and NA) was “significantly decreased”.

With “TGFβ1: transforming growth factor-β protein subtype, member of the TGFβ superfamily” the “appearance of clusters harboring pigmented cells” value [1] was “significantly enhanced”.

In the case of activin A, the “percentage of clusters that included pigmented cells” value ([1]; 4 weeks) is reported as 50.7±6.5%, the “percentage of pigmented cells from the total number of cells” value ([1]; 4 weeks) is reported as 9.9±1.4% and the “concentration with optimal augmenting effect on percentage of pigmented cells and expression of Bestrophin and RPE65” value ([1]; activin A studied at various concentrations, in presence of NA) is reported as 140 ng/mL. The “pigmentation of clusters of pigmented cells” value ([1]; developed in presence of activin A and NA vs NA alone) was “darker”, the “increase of the percentage of pigmented cells in presence of activin A” value ([1]; in presence of NA) was 5-6 folds and the “expression of MiTF-A with activin A supplementation” value ([4]; 6 weeks, in presence of NA, vs NA alone) was “not affected”. For the same molecule, the “increase of RPE65 expression by activin A treatment” value ([4]; 6 weeks, in presence of NA, vs NA alone (FIG. 4D)) was “over five-fold”, the “increase of Bestrophin expression by activin A treatment” value ([4]; 6 weeks, in presence of NA, vs NA alone (FIG. 4E)) was “over four-fold” and the “expression of RPE marker Bestrophin” value [4, 9] was “significantly increased”. For the same molecule, the “expression of retinal progenitor marker Chx10” value [4, 9] was “significantly increased”, the “expression of retinal progenitor marker Rx1” value [4, 9] was “significantly increased” and the “expression level of total MiTF-isoforms” value ([4]; at 4 weeks of differentiation, activin A with NA vs NA alone) was “increased”. For the same molecule, the “increase of bestrophin expression in presence of activin A” value ([4]; in presence of NA) was “about 10 folds”.

For bFGF: basic FGF, the “appearance of clusters harboring pigmented cells” value [1] was “abolished”.

B1: TGFβ3: transforming growth factor-β protein subtype, member of the TGFβ superfamily (protein, UniProt P10600 301-412, looked up)
Transforming growth factor …: ALDTNYCFRNLEENCCVRPLYIDFRQDLGWKWVHEPKGYYANFCSGPCPYLRSADTTHSTVLGLYNTLNPEASASPCCVPQDLEPLTILYYVGRTPKVEQLSNMVVKSCKCS
modifications: Transforming growth factor beta-3
notes: transforming growth factor-β protein subtype, member of the TGFβ superfamily
In the case of B1, the “expression levels of RPE65” value [4, 10] is reported as “but not of RPE65” and the “expression levels of transcripts of MiTF-A” value [4, 10] is reported as “significantly augmented”.

B2: noggin: bone morphogenetic protein (BMP) antagonist (protein, UniProt Q13253 28-232, looked up)
Noggin: QHYLHIRPAPSDNLPLVDLIEHPDPIFDPKEKDLNETLLRSLLGGHYDPGFMATSPPEDRPGGGGGAAGGAEDLAELDQLLRQRPSGAMPSEIKGLEFSEGLAQGKKQRLSKKLRRKLQMWLWSQTFCPVLYAWNDLGSRFWPRYVKVGSCFSKRSCSVPEGMVCKPSKSVHLTVLRWRCQRRGGQRCGWIPIQYPIISECKCSC
With B2 the “differentiation of hESC clusters into pigmented RPE cells” value ([1]; noggin, absence of NA, 6 weeks) was “blocked”, the “differentiation into pigmented cells” value ([1]; noggin, medium also supplemented with NA, 6 weeks) was “blocked” and the “expression of MiTF-A” value ([4]; noggin, both presence and absence of NA, Real-Time RT-PCR) was “significantly reduced”.
